{"source": "patent US11214548B2", "about": "“Cannabinoid receptor modulators” (priority 2009, dated 2022)", "key": {"hyperalgesia": {"test_system": "hyperalgesia", "details": "rodents, systemic delivery; cited from earlier work"}, "[1]": {"test_system": "hypersensitivity following ligation of spinal nerves", "details": "rats, local (subcutaneous) or systemic administration, chronic constriction injury model; cited from earlier work"}, "[2]": {"test_system": "MIA model of osteoarthritis", "experiment": "MIA model of osteoarthritis pain (von Frey, weight distribution, grip strength)", "type": "in vivo, male Sprague Dawley rats", "details": "3, 10 and 30 mg/kg orally, one hour after dosing, FIG. 2", "text": "Example 5: Effect of Compounds on Osteoarthritis Pain\nInjection of monosodium iodoacetate (MIA) into a joint (Kalbhen, 1987) inhibits the activity of glyceraldehyde-3-phosphate dehydrogenase in chondrocytes, resulting in disruption of glycolysis and eventually in cell death. The progressive loss of chondrocytes results in histological and morphological changes of the articular cartilage, closely resembling those seen in osteoarthritis patients.\nThe osteoarthritis was induced in 200 g male Sprague Dawley rats. […]\nTypically during disease progression, there was an inflammation period of 0-7 days post-intra-articular injection followed by progressive degeneration of the cartilage and subchondral bone from days 14-55. […] Tactile allodynia was measured via von Frey assay, hind limb paw weight distribution was monitored using an incapacitence tester (Columbus Instruments, Columbus, Ohio, USA) and hind limb grip strength was measured using a grip strength meter (Columbus Instruments, Columbus, Ohio, USA). […] Hind paw weight distribution was determined by placing rats in a chamber so that each hind paw rests on a separate force plate of the incapacitence tester. The force exerted by each hind limb (measured in grams) is averaged over a 3 second period. Three measurements were taken for each rat, and the change in hind paw weight distribution calculated. […]"}, "[3]": {"test_system": "FCA-induced hyperalgesia model of inflammatory pain", "experiment": "FCA-induced hyperalgesia in rats", "type": "in vivo, male Sprague Dawley rats", "details": "0.1, 1, 3, 10 and 30 mg/kg orally, 1 h post dosing, FIG. 1", "experimental": "Example 7: Effect of Compounds on FCA-Induced Hyperalgesia in Rats\nMale Sprague Dawley rats from Harlan (200-225 g when received) were used. Upon arrival, rats were housed 4 per cage in shoe-box polycarbonate cages with wire tops, wood chip bedding and suspended food and water bottles. Animals were acclimated for 5-7 days prior to being injected with Freund's complete adjuvant (FCA) (Sigma; catalog #5881).\n2 days (48 h) before testing compounds, baseline readings of all rats were taken right before FCA injection. Rats were then injected with 50 μL FCA containing 1 mg/mL Mtb (Mycobacterium tuberculosis) in right hind footpad under inhalation anesthesia (isoflurane). 48 hours after FCA injection, readings were taken as pre-dosing baseline and then rats were dosed orally with 0.5 mL of vehicle or compound (0.5 mL per 250 g rat). Readings were taken again at 1 h post dosing. All readings were taken with an Analgesy-Meter (Ugo Basile) which measures mechanical hyperalgesia via paw pressure.\nFCA-induced hyperalgesia was tested with an Analgesy-Meter. Briefly, the Analgesy Meter applied an increasing pressure to the right hind paw. The paw withdrawal threshold was the pressure leading to withdrawal.\nMeanwhile a group of rats were dosed orally with 50 mg/kg of Diclofenac as a positive control. Readings were taken again at 1 h post dosing. Dosing volume was 500 μL per 250 g rat."}, "[4]": {"test_system": "paclitaxel model of cancer pain", "experiment": "Paclitaxel-induced allodynia in Sprague Dawley rats", "type": "in vivo, male Sprague Dawley rats", "details": "10 mg/kg orally", "experimental": "Example 8: Paclitaxel-Induced Allodynia in Sprague Dawley Rats\nMale Sprague Dawley rats [200-250 g] (Harlan Laboratories Inc., Livermore, Calif.) were housed three per cage and maintained in a humidity-controlled (40-60%) and temperature-controlled (68-72° F.) facility on a 12 h:12 h light/dark cycle (lights on at 6:30 am) with free access to food (Harlan Teklad, Orange, Calif., Rodent Diet 8604) and water. Rats were allowed one week of habituation to the animal facility before starting treatment.\nRats were treated intraperitoneally, with 2 mg/kg of paclitaxel (Sigma Aldrich, Saint Louis, Mo.) in 10% Cremophor vehicle (500 μL) on days 0, 2, 4, and 6.\nTactile allodynia was tested using von Frey filaments. Briefly, the von Frey assay was performed using the standardized up down method with von Frey filaments, that determine the tactile sensitivity of the paw. By applying the increasingly or decreasingly thicker filaments to the paw in a logarithmic scale of actual force, a linear scale of perceived intensity is determined.\nEight days after the start of paclitaxel dosing, a baseline measurement (von Frey assay) was performed prior to dosing of compounds. […] As a positive control, rats were dosed intraperitoneally with 100 mg/kg gabapentin in water. The dosing volume for oral and peritoneal treatment was 500 μL. […]"}, "[5]": {"test_system": "capsaicin-induced hyperalgesia and allodynia", "details": "humans, topical administration; cited from earlier work"}, "[6]": {"test_system": "bovine nasal cartilage explants", "details": "bovine nasal cartilage explants in vitro; cited from earlier work"}, "[7]": {"test_system": "histamine-induced responses", "details": "human skin, topical administration; cited from earlier work"}, "EAE": {"test_system": "EAE", "details": "cited from earlier work"}, "[8]": {"test_system": "bone marrow-derived osteoblasts/stromal cells", "details": "in vitro; cited from earlier work"}, "[9]": {"test_system": "ovariectomy-induced bone loss", "details": "in vivo; cited from earlier work"}, "vagus nerve preparations": {"test_system": "vagus nerve preparations", "details": "guinea pig and human vagus nerve preparations in vitro; cited from earlier work"}, "cough": {"test_system": "cough", "details": "conscious guinea-pigs, administration prior to citric acid; cited from earlier work"}, "acute and chronic pain": {"test_system": "acute and chronic pain", "details": "animal studies; cited from earlier work"}, "EAU": {"test_system": "EAU", "details": "EAU model in mice; cited from earlier work"}, "capsaicin-induced coughs [10]": {"test_system": "capsaicin-induced coughs", "details": "mice; cited from earlier work"}, "capsaicin-induced coughs [11]": {"test_system": "capsaicin-induced coughs", "details": "guinea pigs; cited from earlier work"}, "CB1": {"test_system": "CB1", "details": "exogenous administration; cited from earlier work"}}, "note": "Read-outs that look alike come from different tables or passages of the source.", "data": [{"compound": "CN1CCCCC1Cn1cc(C(=O)c2cc([N+](=O)[O-])ccc2I)c2ccccc21", "note": "(centres unmarked) [AM1241]", "values": [{"measurement": "hyperalgesia induced in the carrageenan, capsaicin, and formalin models", "setting": "hyperalgesia", "result": "suppresses"}, {"measurement": "tactile and thermal hypersensitivity", "setting": "[1]", "result": "reverses"}]}, {"compound": "CC(C)(CO)NC(=O)c1nn(-c2ccc(F)cc2F)c2c1C[C@H]1C[C@@H]21", "note": "[Compound 493, (1aR,5aR)-2-(2,4-Difluoro-phenyl)-1a,2,5,5a-tetrahydro-1H-2,3-diaza-cyclopropa[a]pentalene-4-carboxylic Acid (2-Hydroxy-1,1-dimethyl-ethyl)-amide]", "values": [{"measurement": "paw withdrawal threshold (PWT) in comparison with vehicle", "setting": "[2]", "result": "Increase in paw withdrawal threshold (PWT)"}, {"measurement": "paw withdrawal threshold (PWT) in comparison with the vehicle", "setting": "[3]", "result": "increase in paw withdrawal threshold (PWT)"}, {"measurement": "time of maximum efficacy post-dosing", "setting": "[4]; von Frey time course", "result": 1, "unit": "h"}, {"measurement": "paw withdrawal threshold (PWT) in comparison with vehicle and gabapentin", "setting": "[4]; 30, 60 and 180 minutes after dosing, FIG. 3", "result": "increase in paw withdrawal threshold (PWT)"}]}, {"compound": "CCCCCCC(C)(C)c1cc(O)c2c(c1)OC(C)(C)[C@@H]1CC=C(CO)C[C@@H]21", "note": "[HU-210]", "values": [{"measurement": "capsaicin-induced hyperalgesia and allodynia", "setting": "[5]", "result": "attenuates"}, {"measurement": "IL-1alpha-stimulated proteoglycan and collagen degradation", "setting": "[6]", "result": "significantly inhibit"}, {"measurement": "histamine-induced responses", "setting": "[7]", "result": "reduces"}]}, {"compound": "CCCCCCC(C)(C)c1cc(OC)c([C@@H]2C=C(CO)[C@@H]3C[C@H]2C3(C)C)c(OC)c1", "note": "[HU-308]", "values": [{"measurement": "recruitment of immature myeloid cells and T cells, microglial and infiltrating myeloid cell proliferation, and axonal loss", "setting": "EAE; EAE model", "result": "markedly reduces"}, {"measurement": "endocortical osteoblast numbers and activity", "setting": "[8]", "result": "enhances"}, {"measurement": "proliferation of osteoclast precursors", "setting": "[8]", "result": "inhibiting"}, {"measurement": "ovariectomy-induced bone loss", "setting": "[9]", "result": "attenuates"}]}, {"compound": "CCCC(C)(C)c1ccc2c(c1)OC(C)(C)[C@@H]1CC=C(C)C[C@@H]21", "note": "[JWH133]", "values": [{"measurement": "capsaicin-, PGE2- and hypertonic saline-induced depolarization", "setting": "vagus nerve preparations", "result": "reduces"}, {"measurement": "cough", "setting": "cough", "result": "significantly reduces"}]}, {"compound": "Cc1c(C(=O)c2cccc3ccccc23)c2cccc3c2n1[C@H](CN1CCOCC1)CO3", "note": "[WIN 55212-2]", "values": [{"measurement": "effect against acute and chronic pain from chemical, mechanical, and thermal pain stimuli", "setting": "acute and chronic pain", "result": "effective"}, {"measurement": "leukocyte rolling and adhesion in the brain", "setting": "EAE; EAE mouse model", "result": "significantly inhibits"}, {"measurement": "neuroprotection", "setting": "EAU", "result": "significant neuroprotection"}, {"measurement": "IL-1alpha-stimulated proteoglycan and collagen degradation", "setting": "[6]", "result": "significantly inhibit"}, {"measurement": "number of capsaicin-induced coughs", "setting": "capsaicin-induced coughs [10]", "result": "dose-dependent inhibition"}]}, {"compound": "CCCCC/C=C\\C/C=C\\C/C=C\\C/C=C\\CCCC(=O)NCCO", "note": "[anandamide]", "values": [{"measurement": "effect against acute and chronic pain from chemical, mechanical, and thermal pain stimuli", "setting": "acute and chronic pain", "result": "effective"}, {"measurement": "number of capsaicin-induced coughs", "setting": "capsaicin-induced coughs [11]", "result": "dose-dependent inhibition"}]}, {"compound": "CCCCC/C=C\\C/C=C\\C/C=C\\C/C=C\\CCCC(=O)NCCCl", "note": "[arachidonyl-2-chloroethylamide]", "values": [{"measurement": "pain", "setting": "CB1", "result": "reduces"}]}]}
